Experimental data published in patent US4562275A, “Antitumor platinum complexes” (priority 1984, dated 1985).
Several values for one entry are separate records, joined by “and”; a condition that tells them apart may be missing. Equal values may be shown once.

Key:
L1210 leukemia = assay: Antitumor activity vs transplantable L1210 leukemia (ip) in mice; assay type: in vivo, mouse; conditions: for Max % T/C: dying mice only; for OD (optimum dose): optimum dose from the L1210 test
Source text: The antitumor activities of the complexes provided by the present invention have been determined against L-1210 leukemia in the mouse and, for certain of the complexes, against other mouse tumor systems.
(§1) Results of antitumor testing against the transplantable mouse tumors L1210 leukemia, cisplatin-resistant L1210 leukemia, B16 melanoma, Madison 109 lung carcinoma and colon 26 carcinoma are shown below in Tables 1 and 2.
In Table 1 are shown the maximum % T/C values obtained for each platinum compound versus L1210 leukemia using both single and qd 1→5 dosing.
(§2) The methods used to evaluate the platinum complexes for antitumor activity and toxicity in animals are summarized below. These methods have been published elsewhere in more detail (Rose, et al. Cancer Treat. Rep. 66: 135, 1982; Florczyk, et al, Cancer Treat. Rep. 66: 187, 1982).
(§3) The parent line of L1210 leukemia (L1210) was maintained in DBA/2 mice by ip transplantation of 10^5 cells at weekly intervals. […] B16 malenoma (B16) was maintained by sc transplant in C57BL/6 mice every two weeks. Madison 109 lung carcinoma (M109) and colon 26 carcinoma (C26) were maintained by sc transplant in BALB/c mice every two weeks.
(§4) The level and route of tumor inoculum, host, group size, and drug treatment schedule and route for each tumor type are summarized below in Table 6. Each complex was evaluated initially against L1210 at 4 dose levels per schedule selected on the basis of lethality data provided by the Wadley Institute. In subsequent experiments with the other tumors the complexes were evaluated at a minimum of 3 dose levels selected on the basis of maximum tolerated levels in the L1210 experiments. Cisplatin-treated groups and a saline-treated (or untreated) tumor control group were included in each experiment.
(§5) The L1210 experiments were terminated on Day 30 whereas the B16, C26 and M109 experiments were terminated on Day 60 (some C26 experiments were terminated on Day 75). Mice alive at the termination day were autopsied and considered cured if no tumor was visible. […] A complex was considered active if it produced a % T/C value ≥125.

[1] = test system: L1210/CDDP (cisplatin resistant line of L1210 leukemia); assay: Antitumor activity vs cisplatin-resistant L1210 leukemia (L1210/CDDP) in mice; assay type: in vivo, mouse
Source text: Results of antitumor testing against the transplantable mouse tumors L1210 leukemia, cisplatin-resistant L1210 leukemia, B16 melanoma, Madison 109 lung carcinoma and colon 26 carcinoma are shown below in Tables 1 and 2. […]
as §2, §3, §4, §5

B16 melanoma [2] = assay: Antitumor activity vs ip B16 melanoma in mice; assay type: in vivo, mouse; design: O.D.: unit not given here; conditions: for O.D.: ip B16 (3×; 9×); for Max. % T/C: ip B16 (3×; 9×): q4d × 3 or qd 1-9, ip, dying mice only; for Ratio of Max. % T/C Complex/cDDP: ip B16, relative to concomitant cisplatin
Source text: as §2, §3
The level and route of tumor inoculum, host, group size, and drug treatment schedule and route for each tumor type are summarized below in Table 6. Each complex was evaluated initially against L1210 at 4 dose levels per schedule selected on the basis of lethality data provided by the Wadley Institute.
as §5

C26 carcinoma = assay: Antitumor activity vs ip C26 (colon 26) carcinoma in mice; assay type: in vivo, mouse; design: O.D.: unit not given here; conditions: for Max. % T/C: ip C26 (2×; 4×): q3d × 2 or qd 1-4, ip, dying mice only; for Ratio of Max. % T/C Complex/cDDP: ip C26, relative to concomitant cisplatin
Source text: as §1, §2, §3, §4, §5
8 q3d^b × 2 or qd 1-4, ip

M109 carcinoma = assay: Antitumor activity vs ip M109 (Madison 109 lung) carcinoma in mice; assay type: in vivo, mouse; design: O.D.: unit not given here; conditions: for O.D.: ip M109 (2×; 4×); for Max. % T/C: ip M109 (2×; 4×): q3d × 2 or qd 1-4, ip, dying mice only; for Ratio of Max. % T/C Complex/cDDP: ip M109, relative to concomitant cisplatin
Source text: as §1, §2, §3, §4, §5
8 q3d^a × 2 or qd 1-4, ip

BDF1 mice [3] = assay: Single-dose ip LD50 in BDF1 mice; assay type: in vivo, mouse; conditions: 30 days observation
Procedure: Single-dose ip LD50 values were determined in BDF1 mice for the indicated complexes.

BDF1 mice [4] = assay: Nephrotoxicity: effect on blood urea nitrogen (BUN) in BDF1 mice; conditions: for BUN↑, Mouse: effect relative to cisplatin
Procedure: The other compounds were in such short supply that they were tested for effects on BUN values using the optimum dose (O.D.) from the L1210 test for dose selection.
The toxicity studies were done in male BDF1 mice (25-29 gm) and castrated male Fitch ferrets (1-1.5 kg).
The complexes that were active against L1210 were evaluated for nephrotoxicity by determining their effects on blood urea nitrogen (BUN) levels in mice. Groups of 40-50 mice/experiment were bled from the retro-orbital plexus and individual BUN values determined by a modified urease method using a Centrifichem System 400. The test complex, or saline for controls, was given at several dose levels (5-10 mice/dose) in single ip injections. The highest dose of the complex usually corresponded to its LD50 value or 1.5 times its optimal single dose in the L1210 experiment. At least two lower doses were included to evaluate dose-related effects. The BUN values were measured 4 and 7 days after dosing. BUN values ≥30 mg% were considered indicative of drug-induced nephrotoxicity.

BDF1 mice [5] = assay: Deaths (D.14) in the BUN test in BDF1 mice; assay type: in vivo, mouse
[6] = Solubility stated in the preparation examples
B16 melanoma [7] = assay: Antitumor activity vs B16 melanoma, sc tumor implant with iv drug dosing; assay type: in vivo, mouse; conditions: for Max. % T/C: dying mice only
Source text: ^b Sc tumor implant with iv drug dosing.
as §3, §4, §5

Solubility (Table 3) = conditions: medium not given
[8] = L1210, single dose Day 1, ip, (a), (b) determinations
[9] = L1210, single dose Day 1, ip, dose giving the Max % T/C, same order
[10] = L1210, Day 1, in intralipid plus ethanol

Molecule	O.D. (optimal dose) (L1210 leukemia; L1210, QD 1 → 5, ip) [mg/kg/inj]	Max % T/C (L1210 leukemia; L1210, QD 1 → 5, ip) [%]	Max % T/C (L1210 leukemia; [8])	O.D. (optimal dose) (L1210 leukemia; [9])	OD (optimum dose) (L1210 leukemia)	Cures/total ([1]; Day 1)	O.D. (optimal dose) ([1]; Day 1) [mg/kg/inj]	Max % T/C ([1]; Day 1, dying mice only) [%]	O.D. (B16 melanoma [2])	Max. % T/C (B16 melanoma [2]) [%]	Ratio of Max. % T/C Complex/cDDP (B16 melanoma [2])	O.D. (C26 carcinoma; ip C26 (2×; 4×))	Max. % T/C (C26 carcinoma) [%]	Ratio of Max. % T/C Complex/cDDP (C26 carcinoma)	O.D. (M109 carcinoma)	Max. % T/C (M109 carcinoma)	Ratio of Max. % T/C Complex/cDDP (M109 carcinoma)	LD50 (BDF1 mice [3]) [mg/kg/ip]	BUN↑, Mouse (BDF1 mice [4])	Solubility in water [6]	further results
CC(C)CC(C)(N)CN.[O-]B([O-])O.[Pt+2] (centres unmarked) [Example 10, borato 1,2-diamino-2,4-dimethylpentane platinum(II)]	10	236	171% and 225%	20 mg/kg/inj and 24 mg/kg/inj	10-20 mg/kg/ip	5/6	24	307	9	174	.82	8	100	.69	5	74%	.48	30	<	soluble	Incidence of BUN > 30 mg % (BDF1 mice [4]; 17 mg/kg ip): 0/10; Incidence of BUN > 30 mg % (BDF1 mice [4]; 22.5 mg/kg ip): 1/10; Incidence of BUN > 30 mg % (BDF1 mice [4]; 30 mg/kg ip): 7/10; Deaths D.14 (BDF1 mice [5]; 17 mg/kg ip): 0/10; Deaths D.14 (BDF1 mice [5]; 22.5 mg/kg ip): 0/10; Deaths D.14 (BDF1 mice [5]; 30 mg/kg ip): 1/10; Solubility in methanol ([6]; methanol): soluble
N[C@@H]1CCCC[C@H]1N.O=C([O-])C(F)(F)C(F)(F)C(F)(F)F.O=C([O-])C(F)(F)C(F)(F)C(F)(F)F.[Pt+2] (relative stereo) [Example 3, bis-heptafluorobutyrato trans(-)-1,2-diaminocyclohexane platinum(II)]	3	186	157%	48 mg/kg/inj	24 mg/kg/ip	–	–	–	1	182	–	16	119	–	12 and 8	118% and 103%	–	–	0	–	O.D. (optimal dose) (L1210 leukemia; [10]): 24 mg/kg/inj and 18 mg/kg/inj; Max % T/C (L1210 leukemia; [10]): 214% and 200%; Cures/total (L1210 leukemia; L1210, QD 1 → 5, ip): 2/6; O.D. (optimal dose) ([1]; Day 1, in intralipid plus ethanol): 12 mg/kg/inj; Max % T/C ([1]; Day 1, in intralipid plus ethanol, dying mice only): 195%; O.D. (B16 melanoma [7]): 4; Max. % T/C (B16 melanoma [7]): 164%; Incidence of BUN > 30 mg % (BDF1 mice [4]; 24 mg/kg ip): 0/3; Incidence of BUN > 30 mg % (BDF1 mice [4]; 36 mg/kg ip): 0/2; Deaths D.14 (BDF1 mice [5]; 24 mg/kg ip): 2/5; Deaths D.14 (BDF1 mice [5]; 36 mg/kg ip): 3/5
N.N.[Cl][Pt][Cl] [Cisplatin, reference compound]	–	–	–	–	8 mg/kg/ip	–	–	–	–	–	–	–	–	–	–	–	–	–	–	–	Max. % T/C (B16 melanoma [2]; listed as cDDP): 172% and 186% and 191% and 220% and 185% and 212% and 189%; Cures/total (C26 carcinoma; ip C26 (2×; 4×)): 2/8; Max. % T/C (C26 carcinoma; listed as cDDP): 176% and 163% and 144%; O.D. (C26 carcinoma; ip C26 (2×; 4×), listed as cDDP): 4 and 3 and 2.5; Max. % T/C (M109 carcinoma; listed as cDDP): 153% and 175% and 155% and 163% and 142%; O.D. (B16 melanoma [7]): 6; Max. % T/C (B16 melanoma [7]): 152%; Deaths D.14 (BDF1 mice [5]; 8 mg/kg ip, historical ranges, 20160 min): 0-40%; Deaths D.14 (BDF1 mice [5]; 10.5 mg/kg ip, historical ranges, 20160 min): 0-50%; Deaths D.14 (BDF1 mice [5]; 12 mg/kg ip, historical ranges, 20160 min): 20-100%; Deaths D.14 (BDF1 mice [5]; 14 mg/kg ip, historical ranges): 50-100%
phosphonoacetato trans(-)-1,2-diaminocyclohexane platinum(II) [Example 11]	10	207	179% and 225%	20 mg/kg/inj and 24 mg/kg/inj	20 mg/kg/ip	2/6	24	240	9	206	.97	8	116	.81	10	114%	.74	20	–	soluble	Incidence of BUN > 30 mg % (BDF1 mice [4]; 20 mg/kg ip): 0/5; Incidence of BUN > 30 mg % (BDF1 mice [4]; 30 mg/kg ip): 0/5; Deaths D.14 (BDF1 mice [5]; 20 mg/kg ip): 0/5; Deaths D.14 (BDF1 mice [5]; 30 mg/kg ip): 0/5; Solubility in alcohol ([6]; alcohol): insoluble
NCC1(N)CCCCCCC1.O=C([O-])CP(=O)([O-])[O-].[H+].[Pt+2] [Example 15, phosphonoacetato 1-aminomethylcyclooctylamine platinum(II)]	10	193	236%	80 mg/kg/inj	80 mg/kg/ip	–	–	–	3	147	.77	–	–	–	–	–	–	137	<	very water-soluble	Incidence of BUN > 30 mg % (BDF1 mice [4]; 77 mg/kg ip): 0/10; Incidence of BUN > 30 mg % (BDF1 mice [4]; 103 mg/kg ip): 2/10; Incidence of BUN > 30 mg % (BDF1 mice [4]; 137 mg/kg ip): 7/10; Deaths D.14 (BDF1 mice [5]; 77 mg/kg ip): 0/10; Deaths D.14 (BDF1 mice [5]; 103 mg/kg ip): 3/10; Deaths D.14 (BDF1 mice [5]; 137 mg/kg ip): 9/10; Solubility (Solubility (Table 3)): 7000 µg/mL
